From patent publication US5714666A, “Measurement of intracellular calcium using bioluminescent apoaequorin expressed in mammalian cells” (Children's Hospital of Philadelphia, priority 1995, dated 1998)

Assays:
Format in all cases: cell-based
human 293 cells = assay: Aequorin expression assay in human 293 cells transfected with a single plasmid (pDPaqneo3, pDP5ht2neo3 or pDP3 vector)
Description: Human 293 cells were cultured on 100 mm tissue culture dish in minimum essential medium (MEM) containing 10% charcoal treated fetal bovine serum, 2 mM L-glutamine, 100 units penicillin G sodium per ml, 100 units streptomycin sulfate per ml. DNA mediated transfection was performed when these cells grew to 70% to 80% confluence on the plates. These transfected cells were incubated in 3% CO2, 37° C. incubator overnight. Cells were replenished with fresh medium and transferred to 5% CO2, 37° C. incubator the next day [C. […] (17).
Two days after the transfection, cells were washed twice with phosphate buffered saline (PBS). Cells were then harvested by ice-cold PBS and rubber policeman. After centrifugation at 1,600 r.p.m. for 5 minutes, the pellet was dissolved in Ca^++ -free AqH buffer (120 mM NaCl, 4.8 mM KCl, 1.2 mM KH2 PO4, 25 mM Hepes, 0.1% bovine serum albumin, pH 7.4) at a concentration about 10 million cells per 1 ml solution. Tubes containing cells were wrapped with aluminum foil. Coelenterazine was a generous gift from Dr. Kishi, Harvard University and Dr. Shimomura, Marine Biological Laboratory. It was stored at -70° C., dissolved in methanol immediately before use, and kept in the dark at all times. […] Aequorin was reconstituted incubating these apoaequorin cDNA transfected cells with 10 μM coelenterazine in the dark room temperature for 30 minutes. Unincorporated coelenterazine was washed away after incubation by adding 25 ml Ca^++ -free AqH buffer to each sample and centrifugating at 1,600 r.p.m. Samples were centrifuged again and pellets of 293 cells were dissolved in Ca^++ -free AqH buffer. The final concentration of cells was approximately 10 million per 1 ml solution. For light emission measurement, 100 μl of cell sample was mixed with equal volume of appropriate reagent in a 2 ml glass tube immediately before inserted into the luminometer (Berthold Biolumat LB 9500). Counting of light emission started immediately after the glass tube insertion. The number of photons emitted during the first 30 seconds was integrated by the luminometer and shown on the screen. The time course of light emission was recorded on a chart recorder and a Mackintosh computer using the MacLab Chart/4 V3.1.3 program for further analysis.

[1] = tested on: mouse primary neuron culture; assay: Photon emission of primary neuron cultures from apoaequorin transgenic mice
Description: A transgenic mouse was mated with non-transgenic mouse B6XSJLF1 female mouse. The whole brains were removed from 19 day old mouse embryos and used to make primary neuronal cultures and incubated in minimum essential medium containing 500 μg genticin per ml. After ten days, cells were removed from plates, mixed with colenterazine and tested for aequorin expression using an expression assay.
Embryos resulting from mating transgenic mouse no.
Thereafter 10 μl (1 mg/ml PBS) Br-A23187 and 0.5 mM CaCl2 were added to the cell culture. The drug Br-A23187 opens calcium channels.

5-HT2 receptor = molecular target: T1, 5-HT2 receptor (Rattus norvegicus, UniProt P14842); assay: Aequorin light emission assay in human 293 cells co-transfected with apoaequorin cDNA and 5-HT2 cDNA; conditions: for Antagonist inhibition of light emission in response to serotonin: 50 μM antagonist, 30 seconds before 10 μM serotonin, FIG. 2
T1 construct: expressed in transfected cells; host or cells: human 293 cells, transiently co-transfected with pDPaqneo3 (apoaequorin) and pDP5ht2neo3
T1 sequence (P14842 whole entry): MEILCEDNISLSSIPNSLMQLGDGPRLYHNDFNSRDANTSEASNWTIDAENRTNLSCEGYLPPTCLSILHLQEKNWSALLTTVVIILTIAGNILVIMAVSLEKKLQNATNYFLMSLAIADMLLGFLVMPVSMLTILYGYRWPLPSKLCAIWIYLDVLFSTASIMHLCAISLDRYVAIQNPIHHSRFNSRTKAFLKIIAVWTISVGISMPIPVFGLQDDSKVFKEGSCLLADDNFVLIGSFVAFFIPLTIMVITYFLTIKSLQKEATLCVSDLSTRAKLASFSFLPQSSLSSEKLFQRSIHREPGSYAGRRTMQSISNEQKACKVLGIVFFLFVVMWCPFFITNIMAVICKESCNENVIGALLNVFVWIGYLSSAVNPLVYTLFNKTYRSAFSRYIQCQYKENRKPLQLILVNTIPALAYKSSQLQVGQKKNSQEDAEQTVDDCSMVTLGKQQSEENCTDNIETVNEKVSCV
Description: DNA from the apoaequorin plasmid (pDPaqneo3) and the 5-HT2 plasmid (pDPSht2neo3) were mixed in equal portions in the transfection solution immediately before transfection. Transfection was performed as described in Example 2.
Two days after the transfection, cells were washed twice with phosphate buffered saline (PBS). Cells were then harvested by ice-cold PBS and rubber policeman. After centrifugation at 1,600 r.p.m. for 5 minutes, the pellet was dissolved in Ca^++ -free AqH buffer (120 mM NaCl, 4.8 mM KCl, 1.2 mM KH2 PO4, 25 mM Hepes, 0.1% bovine serum albumin, pH 7.4) at a concentration about 10 million cells per 1 ml solution. Tubes containing cells were wrapped with aluminum foil. Coelenterazine was a generous gift from Dr. Kishi, Harvard University and Dr. Shimomura, Marine Biological Laboratory. It was stored at -70° C., dissolved in methanol immediately before use, and kept in the dark at all times. The concentration of coelenterazine was estimated by the measurement of absorbance at 434 nanometer [the molar absorptivity434 =8,900 M^-1·cm^-1; K. Hori, H. Charbonneau, R. C. Hart, M. J. Cormier, Proc. Natl. Acad. Sci. U.S.A. 74, 4285 (1977)]. Aequorin was reconstituted incubating these apoaequorin cDNA transfected cells with 10 μM coelenterazine in the dark room temperature for 30 minutes. Unincorporated coelenterazine was washed away after incubation by adding 25 ml Ca^++ -free AqH buffer to each sample and centrifugating at 1,600 r.p.m. Samples were centrifuged again and pellets of 293 cells were dissolved in Ca^++ -free AqH buffer. The final concentration of cells was approximately 10 million per 1 ml solution. For light emission measurement, 100 μl of cell sample was mixed with equal volume of appropriate reagent in a 2 ml glass tube immediately before inserted into the luminometer (Berthold Biolumat LB 9500). Counting of light emission started immediately after the glass tube insertion. The number of photons emitted during the first 30 seconds was integrated by the luminometer and shown on the screen. The time course of light emission was recorded on a chart recorder and a Mackintosh computer using the MacLab Chart/4 V3.1.3 program for further analysis.
Intracellular calcium concentration was measured as described in Example 15.

Compound: [Ca+2].[Cl-].[Cl-] [Ca^++, CaCl2]
- Detected photons (human 293 cells; cells transfected with pDP3 vector only, 50 nM Ca++): 1,607 photons
- Detected photons (human 293 cells; cells transfected with pDP5ht2neo3 only, 50 nM Ca++): 1,346 ± 167 photons
- Photons detected upon addition of Ca++ (human 293 cells; cells transfected with pDPaqneo3 and incubated with coelenterazine cofactor): rapid and dramatic increase in the photons detected
- Detected photons (human 293 cells; cells transfected with pDPaqneo3 only, 50 nM Ca++): 293,209 photons
- Emission of photons upon addition of Ca++ (human 293 cells; cells transfected with plasmids not containing apoaequorin cDNA and untransfected cells): no rise in the emission of photons
- Light emission upon addition of Ca++ (human 293 cells; pDPaqneo3 transfected cells not incubated with coelenterazine cofactor): no increase of light emission
- Photon emission (excitotoxicity) ([1]; 100 μl of 100 mM CaCl2, control non-transgenic neuronal culture no. 6, FIG. 5B): no excitotoxic effect
- Photon emission (excitotoxicity) ([1]; 100 μl of 100 mM CaCl2, culture from transgenic mouse no. 2, FIG. 5A): increase in cell excitotoxicity

Compound: O=C(O)CN(CCN(CC(=O)O)CC(=O)O)CC(=O)O [EDTA]
- Effect on Ca++ induced photon emission (human 293 cells; EDTA added to buffer, pDPaqneo3-transfected cells (data not shown)): prevented the increase in photon emission

Compound: CN(C)CCCSc1ccccc1NC(=O)/C=C/c1ccccc1 [cinanserin]
- Antagonist inhibition of light emission in response to serotonin (5-HT2 receptor): inhibited

Compound: O=C(c1ccc(F)cc1)C1CCN(CCn2c(=O)[nH]c3ccccc3c2=O)CC1 [ketanserin]
- Antagonist inhibition of light emission in response to serotonin (5-HT2 receptor): inhibited

Compound: NCCc1c[nH]c2ccc(O)cc12 [serotonin]
- Photon emission upon addition of serotonin (5-HT2 receptor; cells co-transfected with pDPaqneo3 and pDP5ht2neo3): dramatic rise in photon emission
- Detected photons (5-HT2 receptor; cells transfected with pDPaqneo3 & pDP5ht2neo3, 500 nM, first 30 seconds): 79,840 ± 3,342 photons
- Photon emissions per cell (5-HT2 receptor; saturating concentration (500 μM)): ≤ 40 photons per cell
- Detected photons (human 293 cells; cells transfected with pDP3 vector only, 500 nM): 1,599 photons
- Detected photons (human 293 cells; cells transfected with pDP5ht2neo3 only, 500 nM): 1,308 ± 339 photons
- Photon emission upon serotonin treatment (human 293 cells; cells transfected with pDPaqneo3 only, pDP5ht2neo3 only or pDP3 vector only): no increase of photo emission
- Detected photons (human 293 cells; cells transfected with pDPaqneo3 only, 500 nM): 6,150 photons

Compound: Br-A23187
- Photon emission (excitotoxicity) ([1]; 10 μl (1 mg/ml PBS) Br-A23187 with 0.5 mM CaCl2, culture from transgenic mouse no. 20, FIG. 6A): increased excitotoxicity
- Photon emission (excitotoxicity) ([1]; Br-A23187 with 0.5 mM CaCl2 and 50 mM EGTA, culture from transgenic mouse no. 20, FIG. 6B): increased excitotoxicity
